The target in one test is T1, Progesterone receptor (Homo sapiens, UniProt P06401).
T1 sequence (P06401 whole entry): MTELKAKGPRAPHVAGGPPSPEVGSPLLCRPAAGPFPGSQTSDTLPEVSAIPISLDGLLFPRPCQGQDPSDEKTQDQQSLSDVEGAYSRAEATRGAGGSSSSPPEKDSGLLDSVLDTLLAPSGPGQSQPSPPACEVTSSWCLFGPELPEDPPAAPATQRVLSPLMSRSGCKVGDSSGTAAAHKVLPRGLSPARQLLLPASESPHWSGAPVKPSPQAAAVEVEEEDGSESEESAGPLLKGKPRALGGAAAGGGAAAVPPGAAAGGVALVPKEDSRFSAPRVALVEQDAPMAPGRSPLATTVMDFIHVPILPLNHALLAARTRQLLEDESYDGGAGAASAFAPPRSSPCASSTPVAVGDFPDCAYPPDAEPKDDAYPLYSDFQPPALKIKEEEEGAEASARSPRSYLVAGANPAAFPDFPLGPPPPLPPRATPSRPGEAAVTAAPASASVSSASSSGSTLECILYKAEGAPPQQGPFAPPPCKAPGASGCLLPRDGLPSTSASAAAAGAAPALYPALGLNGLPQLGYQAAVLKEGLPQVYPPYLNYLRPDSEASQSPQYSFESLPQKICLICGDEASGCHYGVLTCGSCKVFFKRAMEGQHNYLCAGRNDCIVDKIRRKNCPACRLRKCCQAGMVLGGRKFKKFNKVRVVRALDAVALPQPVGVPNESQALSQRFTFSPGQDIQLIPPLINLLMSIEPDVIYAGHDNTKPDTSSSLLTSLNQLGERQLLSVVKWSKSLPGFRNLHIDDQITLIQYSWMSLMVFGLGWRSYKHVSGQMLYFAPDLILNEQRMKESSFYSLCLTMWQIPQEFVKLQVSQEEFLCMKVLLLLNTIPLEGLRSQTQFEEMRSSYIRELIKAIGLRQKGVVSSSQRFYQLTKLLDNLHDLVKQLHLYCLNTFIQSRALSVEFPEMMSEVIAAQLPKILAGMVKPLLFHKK
Put plainly: Binding affinity to Homo sapiens (human) progesterone receptor.

Test [1] is described as follows: Inhibition of GABA-A receptor benzodiazepine site (unknown origin). The arrangement: species or system Homo sapiens.
Test [2] relates to Respiratory syncytial virus. Put plainly: Antiviral activity against Respiratory syncytial virus infected cell system assessed as inhibition of viral replication. Type of test: functional, organism-based. The note with it: human respiratory syncytial virus.
Test [3] concerns Aorta. Put plainly: Vasorelaxant activity in endothelium-denuded Rattus norvegicus (rat) aortic rings. Type of test: functional, tissue-based.
Test [4] deals with Aorta. Put plainly: Vasorelaxant activity in Rattus norvegicus (rat) aortic rings. Type of test: functional, tissue-based.
A further test relates to Giardia intestinalis. Put plainly: Antimicrobial activity against Giardia intestinalis. Type of test: functional, organism-based. The settings on record: Giardia duodenalis.
Another test deals with Trichomonas vaginalis. Put plainly: Antimicrobial activity against Trichomonas vaginalis. In kind it is functional, organism-based.
A further test deals with PC-3. Put plainly: Cytotoxicity against Homo sapiens (human) PC3 cells by Alamar blue assay. In kind it is functional, cell-based. For orientation: Resazurin is reduced to fluorescent resorufin, in cell work by metabolically active cells.
A further test concerns HT-29. Put plainly: Cytotoxicity against Homo sapiens (human) HT-29 cells by Alamar blue assay. In kind it is functional, cell-based.
A further test deals with MCF7. Put plainly: Cytotoxicity against Homo sapiens (human) MCF7 cells by Alamar blue assay. Type of test: functional, cell-based.
A further test has as its system HL-60. Put plainly: Cytotoxicity against Homo sapiens (human) HL60 cells by Alamar blue assay. Type of test: functional, cell-based.
The subject of a further test is Candida. Put plainly: Antimicrobial activity against Candida. Type of test: functional.
In test [5] the test system is Respiratory syncytial virus. Put plainly: Ratio of ribavirin EC50 to compound EC50 for Respiratory syncytial virus infected cell system assessed as inhibition of viral replication. In kind it is functional.
The target of a further test is Casein kinase 2 (Rattus norvegicus, UniProt P19139). Put plainly: Inhibition of Rattus norvegicus (rat) liver cytosolic CK2.
The next test has as its system Plasmodium falciparum. Put plainly: Antimicrobial activity against Plasmodium falciparum. In kind it is functional, organism-based.

The record followed here is ChEMBL document CHEMBL3044857, “Benzimidazole: a medicinally important heterocyclic moiety” (Med Chem Res, 2012).

≈ marks a conversion by molar mass, not a printed value.

Sequence of Casein kinase 2 (P67874 whole entry): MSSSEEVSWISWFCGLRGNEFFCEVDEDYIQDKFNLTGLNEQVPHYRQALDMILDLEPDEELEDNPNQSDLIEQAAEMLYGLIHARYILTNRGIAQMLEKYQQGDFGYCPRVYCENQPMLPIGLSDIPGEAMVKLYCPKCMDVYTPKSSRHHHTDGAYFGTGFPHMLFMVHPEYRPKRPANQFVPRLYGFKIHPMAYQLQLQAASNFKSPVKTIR
Sequence of Casein kinase 2 (P19139 whole entry): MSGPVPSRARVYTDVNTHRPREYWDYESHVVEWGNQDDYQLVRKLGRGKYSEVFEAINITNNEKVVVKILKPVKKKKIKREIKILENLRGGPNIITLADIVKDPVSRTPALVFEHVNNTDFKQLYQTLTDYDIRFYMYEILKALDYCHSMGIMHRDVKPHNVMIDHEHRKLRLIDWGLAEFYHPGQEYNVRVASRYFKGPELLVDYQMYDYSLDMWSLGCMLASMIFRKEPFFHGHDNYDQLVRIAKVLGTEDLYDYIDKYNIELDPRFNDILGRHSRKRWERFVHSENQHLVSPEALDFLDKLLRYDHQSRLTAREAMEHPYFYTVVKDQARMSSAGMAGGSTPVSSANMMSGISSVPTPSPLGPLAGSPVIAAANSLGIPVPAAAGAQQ

As to `Sc1nc2ccc(-n3ccnc3)cc2n1C1CCCC1`, affinity on Progesterone receptor was put at a Ki of 28 nM. Take `CCOCN1C2=C(C(=O)Nc3ccccc3F)C(=O)CCN2c2ccc(F)cc21`: the concentration for half-maximal inhibition (IC50) in [1] turned out to be 0.1 nM. That is a sub-nanomolar value. For `NC(=O)c1ncn([C@@H]2O[C@H](CO)[C@@H](O)[C@H]2O)n1` [RIBAVIRIN], the concentration for a half-maximal effect (EC50) in test [2] was found to be 15000 nM.

For the compound `O=[N+]([O-])c1ccc2nc(-c3ccccc3O)[nH]c2c1`, the IC50 amounted to 2010 nM in the test with Aorta [3] and 950 nM in the test on Aorta [4]. The corresponding values for `COc1ccc(-c2nc3cc([N+](=O)[O-])ccc3[nH]2)cc1` are 3610 nM and 1410 nM. As to `Sc1nc2c(Br)cc(Br)cc2[nH]1`, the 50% inhibitory concentration (IC50) amounted to 6 ng/mL (≈ 0.0195 µM) with Giardia intestinalis and 1.5 ng/mL (≈ 0.00487 µM) with Trichomonas vaginalis. For `O=C(O)c1cccc2[nH]c(-c3cccc4oc(-c5ccccc5O)nc34)nc12`, the IC50 with PC-3, with HT-29, with MCF7 and with HL-60 was 7000 nM in each case. With `CCCCn1c(-c2ccc(F)cc2)nc2cc(C#N)ccc21`, the minimum inhibitory concentration (MIC) with Candida was 3130 ng/mL (≈ 10.7 µM).

In the case of `Cc1ccc(O)c(Cn2c(NC3CCN(CCN)CC3)nc3c(C)cccc32)n1` [JNJ 2408068], the “Ratio EC50” value in [5] is recorded as 100000. Besides, in test [2], the EC50 came to 0.16 nM. Regarding `FC(F)(F)c1nc2c(Br)c(Br)c(Br)c(Br)c2[nH]1`, the Ki at Casein kinase 2 stood at 600 nM. As to `N=C(N)c1ccc(-c2ccc(O)c(-c3nc4ccc(C(=N)N)cc4[nH]3)c2)cc1`, the IC50 in the test with Plasmodium falciparum was 2.1 nM. That is a single-digit nanomolar value.

For orientation: Ki means a measure of affinity in units of concentration, obtained from inhibition or displacement. A high value points to weaker binding. Usually IC50 stands for the point on the concentration scale where inhibition reaches its midpoint. Read a high IC50 as weaker potency in that assay. As a reminder, the EC50 is the concentration at which the effect is half-maximal. By MIC is commonly meant the lowest concentration that inhibits growth of the organism. Low values mean inhibition by little substance, high ones a need for much substance.
